Data taken from patent US20110160249A1, “5-LIPOXYGENASE-ACTIVATING PROTEIN INHIBITOR” (priority 2008, published 2011).

Legend:
[1] = mouse, in vivo, po, 250 mg/kg/day
CYP3A4 [2] = target: T1, CYP3A4 (Homo sapiens, UniProt P08684); experiment: Extracellular Cytochrome P450 inhibition, 3A4; type: in vitro ADME
T1 construct: from tissue

[3] = test system: production of LTB4 after ionophore stimulation in washed human leukocytes; experiment: LTB4 inhibition in washed human leukocytes; type: cell-based; conditions: Leukocyte, mean of 4 tests
LTB4 in Rat Whole Blood = experiment: Rat whole blood LTB4 inhibition assay; type: cell-based; conditions: mean of 5 tests
[4] = Single dose kinetics in beagle dogs; type: in vivo; conditions: female, dog, plasma, Fasted
[5] = pKa and log P of the sodium salt; type: physicochemical
[6] = Liquid formulations (oral solutions/suspensions); type: physicochemical
Protocol: Values of pH reported were estimated based on pH indicating strips. […] Accordingly, provided in certain embodiments herein were formulations having a pH above about 9, above about 10 or of about 10. In certain embodiments, the formulation was buffered at a pH of about 10. All formulations prepared were sonicated for about 10 minutes.

urinary LTE4 production = experiment: Phase I study, urinary LTE4; type: in vivo, human; conditions: for Emax: Homo sapiens
Description: Study Design: Single center, double-blind, randomized, placebo-controlled, single ascending dose followed by multiple ascending dose study.
Sample Size: (1) Single Dose Phase: eight (8) subjects (6 active, 2 placebo) per dose level; up to 5 dose levels are planned (a total of 40 subjects if all 5 dose levels are completed); and (2) Multiple Dose Phase: eight (8) subjects (6 active, 2 placebo) per dose level; up to 4 dose levels are planned (a total of 32 subjects if all 4 dose levels are completed).
Formulations: Compound 2 was supplied as an oral powder for reconstitution. Placebo solution matched. […] The placebo differed only in the absence of the active.
The following dosing cohorts were used:
Routes of Administration: All doses were administered orally with approximately 100 mL of water rinse. Subjects were fasted for at least 8 hours prior to dosing and for 2 hours after dosing. For BID dosing in the Multiple Dose Phase, when applicable, subjects were fasted for at least 2 hours prior to the second daily dose.
Plasma concentrations of Compound 1 were determined using a validated LC/MS method. Whole blood ionophore-stimulated leukotriene LTB4 and urinary LTE4 production were assayed by ELISA and mass spectrometry, respectively.
Analysis of Samples: Concentrations of Compound 1 was determined in plasma samples collected from subjects. Similarly, concentrations of LTB4 in plasma and urinary LTE4 were determined in blood and urine samples collected.

[7] = test system: LTB4 in Human Whole Blood; experiment: Human blood LTB4 inhibition assay; type: cell-based; conditions: mean of 8 tests
Protocol: A non-limiting example of such a human blood LTB4 inhibition assay is as follows: Blood was drawn from consenting, human volunteers into heparinized tubes and 125 μL aliquots added to wells containing 2.5 μL 50% dimethylsulfoxide (vehicle) or 2.5 μL drug in 50% dimethylsulfoxide. Samples were incubated for 15 minutes at 37° C. 2 μL calcium ionophore […] (from a 50 mM dimethylsulfoxide stock diluted just prior to the assay in Flanks balanced salt solution (Invitrogen)) to 1.25 mM) was added, solutions mixed and incubated for 30 minutes at 37° C. Samples were centrifuged at 1,000 rpm (−200×g) for 10 minutes at 4° C., plasma removed and a 1:100 dilution assayed for LTB4 concentration using ELISA (Assay Designs). Drug concentrations to achieve 50% inhibition (IC50's) of vehicle LTB4 were determined by nonlinear regression (Graphpad Prism) of % inhibition versus log drug is concentration.

CYP 2D6 = target: T2, CYP 2D6 (Homo sapiens, UniProt P10635); experiment: Extracellular Cytochrome P450 inhibition, 2D6; type: in vitro ADME; conditions: dextromethorphan O-demethylation
T2 construct: microsomes were incubated test substrates, which were known to be metabolized by CYP enzymes, with or without Compound 2; from tissue

CYP2C9 = experiment: Cellular Cytochrome P450 induction, CYP2C9; conditions: tested at 10 μM, cryopreserved human hepatocytes
CYP3A4 [8] = experiment: Cellular Cytochrome P450 induction, CYP3A4; conditions: tested at 10 μM, cryopreserved human hepatocytes
CYP 1A2 = CYP 1A2 (Homo sapiens, UniProt P05177); experiment: Extracellular Cytochrome P450 inhibition, 1A2
Protocol: Aliquots of this mixture to (89 μL) were delivered to each well of a 96-well polypropylene plate which contained an aliquot of inhibitor (1 μL). Final solvent concentrations were 1% (v/v) or less. Incubations were commenced with the addition of 10 μL β-NADPH (10 mM stock) to a final volume of 100 μL. […] Samples were centrifuged, and supernatant was transferred for LC-MS analysis.

CYP 2C19 = target: T3, CYP 2C19 (Homo sapiens, UniProt P33261); experiment: Extracellular Cytochrome P450 inhibition, 2C19; type: in vitro ADME; conditions: mephenytoin 4′-hydroxylation
T3 construct: from tissue
Description: Final solvent concentrations were 1% (v/v) or less.

[9] = IV, 4:1 PEG400:Water, 0.67 mg/kg

T1 sequence (P08684 whole entry): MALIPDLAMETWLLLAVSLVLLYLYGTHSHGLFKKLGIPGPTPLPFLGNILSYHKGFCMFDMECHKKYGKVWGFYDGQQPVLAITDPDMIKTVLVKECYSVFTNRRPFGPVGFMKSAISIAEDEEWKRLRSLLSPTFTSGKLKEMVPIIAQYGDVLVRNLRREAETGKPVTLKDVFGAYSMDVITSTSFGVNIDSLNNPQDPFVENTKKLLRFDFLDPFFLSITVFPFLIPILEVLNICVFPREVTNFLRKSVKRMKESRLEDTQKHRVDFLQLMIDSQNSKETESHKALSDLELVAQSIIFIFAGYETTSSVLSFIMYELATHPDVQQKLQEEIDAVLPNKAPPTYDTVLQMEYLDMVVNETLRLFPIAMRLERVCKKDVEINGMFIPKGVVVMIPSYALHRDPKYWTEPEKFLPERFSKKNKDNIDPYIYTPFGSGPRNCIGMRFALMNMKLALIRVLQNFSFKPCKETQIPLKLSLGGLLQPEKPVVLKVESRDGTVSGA
Sequence of CYP 1A2 (P05177 whole entry): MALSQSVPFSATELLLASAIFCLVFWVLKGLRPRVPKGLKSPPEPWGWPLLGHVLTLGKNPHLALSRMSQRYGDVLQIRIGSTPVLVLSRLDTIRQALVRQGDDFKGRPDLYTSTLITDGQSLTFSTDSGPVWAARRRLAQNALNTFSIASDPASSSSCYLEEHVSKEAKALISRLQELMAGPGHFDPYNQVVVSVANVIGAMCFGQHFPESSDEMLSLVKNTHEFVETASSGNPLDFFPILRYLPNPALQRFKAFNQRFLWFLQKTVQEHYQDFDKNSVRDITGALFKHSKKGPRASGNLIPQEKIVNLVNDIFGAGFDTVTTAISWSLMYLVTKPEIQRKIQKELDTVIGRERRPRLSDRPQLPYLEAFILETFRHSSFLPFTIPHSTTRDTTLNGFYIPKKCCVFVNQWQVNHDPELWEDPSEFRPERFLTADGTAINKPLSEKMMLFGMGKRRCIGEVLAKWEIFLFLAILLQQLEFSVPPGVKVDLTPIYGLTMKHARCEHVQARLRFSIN
T2 sequence (P10635 whole entry): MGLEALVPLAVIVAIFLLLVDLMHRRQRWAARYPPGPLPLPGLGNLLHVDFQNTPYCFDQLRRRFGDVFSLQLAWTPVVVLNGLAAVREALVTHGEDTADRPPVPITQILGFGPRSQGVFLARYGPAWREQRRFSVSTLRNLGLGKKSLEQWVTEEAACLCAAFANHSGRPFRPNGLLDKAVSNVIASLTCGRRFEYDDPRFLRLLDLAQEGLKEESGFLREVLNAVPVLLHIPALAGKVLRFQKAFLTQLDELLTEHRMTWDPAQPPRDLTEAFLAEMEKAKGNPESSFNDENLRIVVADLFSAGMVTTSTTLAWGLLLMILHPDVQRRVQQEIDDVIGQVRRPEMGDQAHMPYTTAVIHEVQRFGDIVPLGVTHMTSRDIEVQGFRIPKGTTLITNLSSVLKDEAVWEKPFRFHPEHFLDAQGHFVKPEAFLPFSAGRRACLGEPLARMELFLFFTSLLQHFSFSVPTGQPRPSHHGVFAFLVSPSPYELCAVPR
T3 sequence (P33261 whole entry): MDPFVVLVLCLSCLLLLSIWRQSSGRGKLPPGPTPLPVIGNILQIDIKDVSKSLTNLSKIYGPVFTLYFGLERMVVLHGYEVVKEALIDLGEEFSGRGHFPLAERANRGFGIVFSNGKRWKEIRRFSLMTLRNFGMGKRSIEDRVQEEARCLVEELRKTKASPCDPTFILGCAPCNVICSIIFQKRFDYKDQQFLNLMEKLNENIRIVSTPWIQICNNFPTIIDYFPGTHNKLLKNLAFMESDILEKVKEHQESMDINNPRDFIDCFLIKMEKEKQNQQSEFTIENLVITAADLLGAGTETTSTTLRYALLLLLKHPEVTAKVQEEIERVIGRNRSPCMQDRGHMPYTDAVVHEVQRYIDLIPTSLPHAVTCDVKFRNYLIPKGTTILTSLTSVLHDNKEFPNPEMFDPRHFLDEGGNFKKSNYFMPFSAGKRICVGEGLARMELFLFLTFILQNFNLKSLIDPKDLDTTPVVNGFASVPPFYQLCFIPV

IC50 (CYP3A4 [2]; midazolam 1-hydroxylation): > 50000 nM
IC50 (CYP3A4 [2]; testosterone 6β-hydroxylation): > 40000 nM
IC50 [3]: 0.44 nM
IC50 (LTB4 in Rat Whole Blood): 239 nM
IC90 (LTB4 in Rat Whole Blood): 1630 nM
AUC(0-inf) [4, 9]: 17600 ng·h/mL
Cmax [4, 9]: 12000 ng/mL
Tmax [4, 9]: 1.02 min
bioavailability [4, 9]: 100%
clearance ([4]; IV, 4:1 PEG400:Water, 0.67 mg/kg, read-out: CLp): 0.6 mL/min/kg
Vd ([4]; IV, 4:1 PEG400:Water, 0.67 mg/kg, read-out: VdSS): 0.2 L/kg
Cmax ([4]; Oral, 0.5% Methylcellulose, 5 mg/kg): 12400 ng/mL
pKa [5]: 3.45
Results (liquid formulation) ([6]; 0.010M sodium carbonate buffer, 1% v/v Lutrol and 0.05% splenda, pH 10, ~10 mg/mL): Clear solution
Results (liquid formulation) ([6]; 0.010M sodium carbonate buffer, 2% v/v ethanol and 0.05% splenda, pH 10, 10 mg/mL): Clear solution
Results (liquid formulation) ([6]; 0.010M sodium carbonate buffer, 5% v/v Ethanol and 0.05% splenda, pH 10, ~10 mg/mL): Some undissolved
Results (liquid formulation) ([6]; 0.010M sodium carbonate buffer, 5% v/v Simple syrup, pH 10, 10 mg/mL): Some undissolved
Results (liquid formulation) ([6]; 0.010M sodium carbonate buffer, pH 10, 10 mg/mL): Clear solution
Results (liquid formulation) ([6]; Vehicle 0.5% Methylcellulose, 3.33 mg/mL): Suspension
IC90 [7]: 1310 nM
IC50 (CYP 2D6): > 50000 nM
induction of CYP2C9 (CYP2C9): No apparent induction
induction of CYP3A4 (CYP3A4 [8]): No apparent induction
IC50 (CYP 1A2): > 40000 nM
IC50 (CYP 2C19): > 40000 nM
SMILES: CCOc1ccc(-c2ccc(Cn3c(CC(C)(C)C(=O)[O-])c(SC(C)(C)C)c4cc(OCc5ccc(C)cn5)ccc43)cc2)cn1.[Na+] [Compound 2, sodium 3-[3-(tert-butylsulfanyl)-1-[4-(6-ethoxy-pyridin-3-yl)benzyl]-5-(5-methyl-pyridin-2-yl-methoxy)-1H-indol-2-yl]-2,2-dimethylpropionate]
necropsy, gross abnormalities [1]: no gross abnormalities
Emax (urinary LTE4 production; 24 h, Multiple dose part, Day 1, 10 mg): 54.1%
Emax (urinary LTE4 production; 24 h, Multiple dose part, Day 1, 50 mg): 94%
Emax (urinary LTE4 production; 24 h, Multiple dose part, Day 1, 150 mg): 98.3%
Emax (urinary LTE4 production; 24 h, Multiple dose part, Day 1, 450 mg): 85.7%
Emax (urinary LTE4 production; 24 h, Single dose part, Day 1, 50 mg): 86.3%
Emax (urinary LTE4 production; 24 h, Single dose part, Day 1, 150 mg): 97.4%
Emax (urinary LTE4 production; 24 h, Single dose part, Day 1, 300 mg): 97%
Emax (urinary LTE4 production; 24 h, Single dose part, Day 1, 600 mg): 96%
Emax (urinary LTE4 production; 24 h, Single dose part, Day 1, 1000 mg): 96.6%
Emax (urinary LTE4 production; 264 h, Multiple dose part, Day 11, 10 mg): 88.6%
Emax (urinary LTE4 production; 264 h, Multiple dose part, Day 11, 50 mg): 97.7%
Emax (urinary LTE4 production; 264 h, Multiple dose part, Day 11, 150 mg): 97.5%
Emax (urinary LTE4 production; 264 h, Multiple dose part, Day 11, 450 mg): 98.4%
Tmax (h), LTE4 (urinary LTE4 production; Multiple dose part, Day 1, 10 mg): 24.00 h
Tmax (h), LTE4 (urinary LTE4 production; Multiple dose part, Day 1, 50 mg): 16.00 h
Tmax (h), LTE4 (urinary LTE4 production; Multiple dose part, Day 1, 150 mg): 24.00 h
Tmax (h), LTE4 (urinary LTE4 production; Multiple dose part, Day 1, 450 mg): 24.00 h
Tmax (h), LTE4 (urinary LTE4 production; Multiple dose part, Day 11, 10 mg): 12.00 h
Tmax (h), LTE4 (urinary LTE4 production; Multiple dose part, Day 11, 50 mg): 9.00 h
Tmax (h), LTE4 (urinary LTE4 production; Multiple dose part, Day 11, 150 mg): 24.00 h
Tmax (h), LTE4 (urinary LTE4 production; Multiple dose part, Day 11, 450 mg): 12.00 h
Tmax (h), LTE4 (urinary LTE4 production; Single dose part, Day 1, 50 mg): 16.00 h
Tmax (h), LTE4 (urinary LTE4 production; Single dose part, Day 1, 150 mg): 16.00 h
Tmax (h), LTE4 (urinary LTE4 production; Single dose part, Day 1, 300 mg): 24.00 h
Tmax (h), LTE4 (urinary LTE4 production; Single dose part, Day 1, 600 mg): 24.00 h
Tmax (h), LTE4 (urinary LTE4 production; Single dose part, Day 1, 1000 mg): 16.00 h
